Where a name gives a salt, the structure may show the parent alone.
Tests used:
[1] = tested on: oxazolone-induced mouse ear swelling; test: Model for inhibition of topical inflammation (oxazolone-induced mouse ear swelling); assay type: in vivo, BALB/c male mice; conditions: topical to right ear, ear thickness 24 hours after challenge
Experimental: Left ears were untreated. The thickness of both ears of each animal was measured with a Dyer model micrometer gauge 24 hours after oxazolone challenge, and the net increase in thickness of right ears versus left ears was calculated for each animal. Percent inhibition was calculated according to the formula: [(Iv−It)/Iv]×100, where Iv and It respectively refer to the average net increase in right ear thickness (mm) for vehicle and candidate compound treated mice.

[2] = tested on: LPS-induced TNF-α release from human peripheral blood mononuclear cells; test: Whole cell LPS-stimulated TNF-α release assay; assay type: cell-based; conditions: Table III; inhibition of LPS-induced TNF-α release from human PBMC by 50%
Experimental: The procedure as described in Welker et al., Int. Arch. Allergy and Immunol. 109:110-115 (1996) can be followed. Briefly, a candidate compound and/or vehicle can be preincubated with human peripheral blood mononuclear leukocytes (PBML, 5×10^5/ml) cells in AIM-V medium pH 7.4 for 2 hours. Lipopolysaccharide (LPS, 25 ng/ml) can be added to stimulate the cells, which can be incubated overnight at 37° C. TNF-α cytokine levels in the conditioned medium can then be quantitated using a sandwich ELISA kit.

Compound	% Inh. of oxazolone-induced mouse ear swelling ([1]; dose 2 × 0.3 mg) [%]	% Inh. of oxazolone-induced mouse ear swelling ([1]; dose 2 × 1 mg) [%]	% Inh. of oxazolone-induced mouse ear swelling ([1]; dose 2 × 2 mg) [%]	IC50 [2] [µM]
CC(C)c1c(C(=O)Nc2ccccc2)c(-c2ccccc2)c(-c2ccc(F)cc2)n1CC[C@@H](O)C[C@@H](O)CC(=O)O [Atorvastatin sodium]	9	31	63	–
O=C(O)C[C@H](O)C[C@H](O)/C=C/c1c(-c2ccccc2)nn(-c2ccnc(Nc3ccccc3)n2)c1-c1ccccc1 [Example 11a, (3R,5S,E)-7-(3,5-diphenyl-1-(2-(phenylamino)pyrimidin-4-yl)-1H-pyrazol-4-yl)-3,5-dihydroxyhept-6-enoic Acid Calcium Salt]	–	–	–	31
O=C(O)C[C@H](O)C[C@H](O)/C=C/c1cnn(-c2ccnc(Nc3ccccc3)n2)c1-c1cccc(C(F)(F)F)c1 [Example 11g, (3R,5S,E)-3,5-dihydroxy-7-(1-(2-(phenylamino)pyrimidin-4-yl)-5-(3-(trifluoromethyl)phenyl)-1H-pyrazol-4-yl)hept-6-enoic acid calcium salt]	–	–	–	52
CC(C)n1c(/C=C/C(O)CC(O)CC(=O)O)c(-c2ccc(F)cc2)c2ccccc21 (stereo not drawn) [Fluvastatin sodium]	28	–	–	–
CC(C)c1nc(N(C)S(C)(=O)=O)nc(-c2ccc(F)cc2)c1/C=C/[C@@H](O)C[C@@H](O)CC(=O)O [Rosuvastatin sodium]	20	–	–	–
O=C([O-])C[C@H](O)C[C@H](O)/C=C/c1c(C2CC2)nc2ccccc2c1-c1ccc(F)cc1.O=C([O-])C[C@H](O)C[C@H](O)/C=C/c1c(C2CC2)nc2ccccc2c1-c1ccc(F)cc1.[Ca+2] [Pitavastatin calcium]	9	–	60	–

From patent publication US20070004758A1, “COMPOSITIONS AND TREATMENTS FOR INHIBITING KINASE AND/OR HMG-COA REDUCTASE” (priority 2004, published 2007)
